Reference: ChEMBL document CHEMBL3997821, “Design, synthesis and evaluation of novel pyrazolo-pyrimido[4,5-d]pyrimidine derivatives as potent antibacterial and biofilm inhibitors” (Bioorg Med Chem Lett, 2017)
Converted amounts (≈) assume the structure as drawn.

Columns and labels:
Type in all cases: functional
Pseudomonas aeruginosa = assay: Antibacterial activity against Pseudomonas aeruginosa MTCC 2453 after 24 hrs by well diffusion method; conditions: MTCC 2453, 24 h
Staphylococcus aureus [1] = assay: Antibacterial activity against Staphylococcus aureus MLS16 MTCC 2940 after 24 hrs by well diffusion method; conditions: MLS16 MTCC 2940, 24 h
Micrococcus luteus [2] = assay: Antibacterial activity against Micrococcus luteus MTCC 2470 after 24 hrs by well diffusion method; conditions: MTCC 2470, 24 h
Escherichia coli = assay: Antibacterial activity against Escherichia coli MTCC 739 after 24 hrs by well diffusion method; conditions: MTCC 739, 24 h
Bacillus subtilis [3] = assay: Antibacterial activity against Bacillus subtilis MTCC 121 after 24 hrs by well diffusion method; conditions: MTCC 121, 24 h
Raoultella planticola = assay: Antibacterial activity against Klebsiella planticola MTCC 530 after 24 hrs by well diffusion method; conditions: MTCC 530, 24 h
Staphylococcus aureus [4] = assay: Antibacterial activity against Staphylococcus aureus MTCC 96 after 24 hrs by well diffusion method; conditions: MTCC 96, 24 h
Micrococcus luteus [5] = assay: Bactericidal activity against Micrococcus luteus MTCC 2470 after 24 hrs by serial dilution method; conditions: MTCC 2470, 24 h
Staphylococcus aureus [6] = assay: Bactericidal activity against Staphylococcus aureus MLS16 MTCC 2940 after 24 hrs by serial dilution method; conditions: MLS16 MTCC 2940, 24 h
Staphylococcus aureus [7] = assay: Bactericidal activity against Staphylococcus aureus MTCC 96 after 24 hrs by serial dilution method; conditions: MTCC 96, 24 h
Bacillus subtilis [8] = assay: Bactericidal activity against Bacillus subtilis MTCC 121 after 24 hrs by serial dilution method; conditions: MTCC 121, 24 h

| SMILES | MIC (Pseudomonas aeruginosa) [µg/mL] | MIC (Staphylococcus aureus [1]) [µg/mL] | MIC (Micrococcus luteus [2]) [µg/mL] | MIC (Escherichia coli) [µg/mL] | MIC (Bacillus subtilis [3]) [µg/mL] | MIC (Raoultella planticola) [µg/mL] | MIC (Staphylococcus aureus [4]) [µg/mL] | MBC (Micrococcus luteus [5]) [µg/mL] | MBC (Staphylococcus aureus [6]) [µg/mL] | MBC (Staphylococcus aureus [7]) [µg/mL] | MBC (Bacillus subtilis [8]) [µg/mL] |
| --- | --- | --- | --- | --- | --- | --- | --- | --- | --- | --- | --- |
| Cc1ccc(N2C=Nc3c(c(=O)n(C)c(=O)n3C)C2c2cn(-c3ccccc3)nc2-c2ccccc2)cc1 (stereo not given) | > 125 | > 125 | > 125 | > 125 | > 125 | > 125 | > 125 |  |  |  |  |
| COc1ccc(N2C=Nc3c(c(=O)n(C)c(=O)n3C)C2c2cn(-c3ccccc3)nc2-c2ccc([N+](=O)[O-])cc2)cc1 (stereo not given) | > 125 | 31.2 (≈ 55.4 µM) | 15.6 (≈ 27.7 µM) | > 125 | 31.2 (≈ 55.4 µM) | > 125 | 31.2 (≈ 55.4 µM) | 15.6 (≈ 27.7 µM) | 31.2 (≈ 55.4 µM) | 62.5 (≈ 111 µM) | 31.2 (≈ 55.4 µM) |
| Cn1c2c(c(=O)n(C)c1=O)C(c1cn(-c3ccccc3)nc1-c1ccc([N+](=O)[O-])cc1)N(c1ccccc1)C=N2 (stereo not given) | > 125 | > 125 | > 125 | > 125 | > 125 | > 125 | > 125 |  |  |  |  |
| Cn1c2c(c(=O)n(C)c1=O)C(c1cn(-c3ccccc3)nc1-c1ccc(Cl)cc1)N(c1ccccc1)C=N2 (stereo not given) | > 125 | > 125 | > 125 | > 125 | > 125 | > 125 | > 125 |  |  |  |  |
| Cn1c2c(c(=O)n(C)c1=O)C(c1cn(-c3ccccc3)nc1-c1cccs1)N(c1ccccc1)C=N2 (stereo not given) | > 125 | 15.6 (≈ 31.5 µM) | 15.6 (≈ 31.5 µM) | > 125 | 31.2 (≈ 63.1 µM) | > 125 | 31.2 (≈ 63.1 µM) |  |  |  |  |
| Cn1c2c(c(=O)n(C)c1=O)C(c1cn(-c3ccccc3)nc1-c1ccc(Cl)cc1)N(c1ccc(Cl)cc1)C=N2 (stereo not given) | > 125 | > 125 | > 125 | > 125 | > 125 | > 125 | > 125 |  |  |  |  |
| Cn1c2c(c(=O)n(C)c1=O)C(c1cn(-c3ccccc3)nc1-c1ccccc1)N(c1ccccc1)C=N2 (stereo not given) | > 125 | 15.6 (≈ 31.9 µM) | 7.8 (≈ 16 µM) | > 125 | 62.5 (≈ 128 µM) | > 125 | 31.2 (≈ 63.9 µM) |  |  |  |  |
| Cc1ccc(-c2nn(-c3ccccc3)cc2C2c3c(n(C)c(=O)n(C)c3=O)N=CN2c2cccc([N+](=O)[O-])c2)cc1 (stereo not given) | > 125 | > 125 | > 125 | > 125 | > 125 | > 125 | > 125 |  |  |  |  |
| Cn1c2c(c(=O)n(C)c1=O)C(c1cn(-c3ccccc3)nc1-c1cccs1)N(c1cccc([N+](=O)[O-])c1)C=N2 (stereo not given) | > 125 | > 125 | > 125 | > 125 | > 125 | > 125 | > 125 |  |  |  |  |
| Cn1c2c(c(=O)n(C)c1=O)C(c1cn(-c3ccccc3)nc1-c1ccc([N+](=O)[O-])cc1)N(c1ccc(Cl)cc1)C=N2 (stereo not given) | > 125 | > 125 | > 125 | > 125 | > 125 | > 125 | > 125 |  |  |  |  |
| Cc1ccc(-c2nn(-c3ccccc3)cc2C2c3c(n(C)c(=O)n(C)c3=O)N=CN2c2ccccc2)cc1 (stereo not given) | > 125 | > 125 | > 125 | > 125 | > 125 | > 125 | > 125 |  |  |  |  |
| Cn1c2c(c(=O)n(C)c1=O)C(c1cn(-c3ccccc3)nc1-c1ccc(Cl)cc1)N(c1cccc([N+](=O)[O-])c1)C=N2 (stereo not given) | > 125 | > 125 | > 125 | > 125 | > 125 | > 125 | > 125 |  |  |  |  |
| COc1ccc(N2C=Nc3c(c(=O)n(C)c(=O)n3C)C2c2cn(-c3ccccc3)nc2-c2ccccc2)cc1 (stereo not given) | > 125 | > 125 | > 125 | > 125 | > 125 | > 125 | > 125 |  |  |  |  |
